This note sets out measurements from patent US12466834B2, “Imidazodiazepinediones and methods of use thereof” (GFB (ABC), LLC, priority 2018, dated 2025).

The assay has as its target T1, human TRPC5 (Homo sapiens, UniProt Q9UL62).
T1 construct: expressed in transfected cells
T1 sequence (Q9UL62 1-973): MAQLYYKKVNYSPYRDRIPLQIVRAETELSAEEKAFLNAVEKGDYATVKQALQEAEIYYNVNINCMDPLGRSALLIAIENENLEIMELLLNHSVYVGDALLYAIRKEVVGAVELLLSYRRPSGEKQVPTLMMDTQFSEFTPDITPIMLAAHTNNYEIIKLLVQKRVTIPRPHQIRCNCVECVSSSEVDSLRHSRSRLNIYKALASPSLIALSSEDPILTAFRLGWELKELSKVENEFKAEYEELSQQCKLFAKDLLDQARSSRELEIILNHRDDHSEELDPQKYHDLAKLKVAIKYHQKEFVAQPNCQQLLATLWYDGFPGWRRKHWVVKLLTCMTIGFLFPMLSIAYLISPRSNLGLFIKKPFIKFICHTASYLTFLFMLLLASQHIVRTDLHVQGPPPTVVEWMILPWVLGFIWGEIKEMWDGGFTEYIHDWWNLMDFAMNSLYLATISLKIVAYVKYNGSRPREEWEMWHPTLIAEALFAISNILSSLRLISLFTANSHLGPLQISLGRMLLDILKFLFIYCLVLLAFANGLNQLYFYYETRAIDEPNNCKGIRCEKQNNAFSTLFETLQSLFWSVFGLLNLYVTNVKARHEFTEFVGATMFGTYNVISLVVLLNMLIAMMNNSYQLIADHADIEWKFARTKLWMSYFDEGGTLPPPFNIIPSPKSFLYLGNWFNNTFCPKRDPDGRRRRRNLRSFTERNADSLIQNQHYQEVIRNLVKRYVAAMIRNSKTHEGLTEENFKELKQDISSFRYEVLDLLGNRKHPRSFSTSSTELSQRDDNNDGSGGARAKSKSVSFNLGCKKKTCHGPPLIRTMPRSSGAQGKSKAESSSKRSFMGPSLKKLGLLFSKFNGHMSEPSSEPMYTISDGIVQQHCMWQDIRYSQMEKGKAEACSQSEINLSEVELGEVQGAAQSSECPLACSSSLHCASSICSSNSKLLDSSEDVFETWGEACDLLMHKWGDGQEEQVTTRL
The assay can be described thus: FLIPR calcium assay, inhibition of riluzole-activated TRPC5 calcium response. It is filed as cell-based. To be noted: ICLN-1633 cells; riluzole 30 μM stimulation; Fluo-4 calcium response; read-out: Inhibitor Potency Range (FLIPR). The procedure:
ICLN-1633 cells (HEK-TREx hTRPC5) expressing TRPC5 were generated as follows. Commercially available HekTrex-293 cells were seeded at 0.7×10^6 cells/well in a 1×6-well plate 24 hrs prior to transfection using 2 mL cell growth media containing no antibiotics (1× DMEM/high glucose (Hyclone #SH30022.02); 10% fetal bovine serum (Sigma) 2 mM sodium pyruvate, 10 mM HEPES). The human TRPC5 coding sequence (NM_012471 with a silent T478C mutation) was cloned into pcDNA5/TO (Invitrogen; Cat No. V103320) using hygromycin as the resistance gene and the plasmid (SEQ ID NO:1) propagated using T-Rex-293 cells (Invitrogen; Cat No. R71007) following manufacturer's directions. On day 2, 2 μg of plasmid DNA plus 6 μl of Xtreme-GENE HP reagent in Optimem (200 μl total volume) was prepared and incubated for 15 min at room temperature. This plasmid solution was then gently overlayed dropwise onto each well and the plate was gently swirled to mix complex with the media for approximately 30 seconds. Transfected cells were incubated at 37° C. in a 10% CO2 incubator for 24 hrs. The transfected cells were harvested and transferred into 2×150 mm dishes containing cell growth media with no antibiotics at 37° C.
Compounds were made up to, or supplied as a 10 mM stock solution generally using DMSO as the vehicle. 10-point dose response curves were generated using the Echo-550 acoustic dispenser. Compound source plates were made by serially diluting compound stocks to create 10 mM, 1 mM, and 0.1 mM solutions in DMSO into Echo certified LDV plates. The Echo then serially spotted 100% DMSO stock solutions into source dose response plates to generate a 4-fold dilution scheme. 100% DMSO was added to the spotted dose response plates to bring the final volume to 5 μl. 300 nl of the dose response stock plate was then spotted into pre-incubation and stimulation assay plates. 50 μl of pre-incubation buffer and 100 μl of stimulation buffer was then added to the plates resulting in a final assay test concentration range of 30 μM to 0.0001 μM with a final DMSO concentration of 0.3%.
Human ICLN-1633 cells expressing were plated onto 384 well, black poly-D-lysine-coated microplates and maintained in TRPC5 growth media the day prior to use for experiments. TRPC5 expression was induced by the application of 1 μg/mL tetracycline at the time of plating. Media was removed from the plates and 10 μl of 4 μM of Fluo-4 AM (mixed with equal volume of Pluronic F-127) in Earls's Balanced Salt Solution (EBSS) was added to the cells. Cells were incubated at room temperature, protected from light, for 60-90 minutes. After the incubation period, the dye was removed and replaced with 10 μl of EBSS. Cell, pre-incubation and stimulation plates were loaded onto the FLIPR-II and the assay was initiated. The FLIPR measured a 10 second baseline and then added 10 μl of 2× compounds (or controls). Changes in fluorescence were monitored for an additional 5 minutes. After the 5 minute pre-incubation, 20 μl of 2× riluzole (with 1× compound or controls) was added to the cell plate. The final riluzole stimulation concentration in the assay was 30 μM. After the riluzole addition, changes in fluorescence were monitored for an additional 5 minutes. Reduction in the riluzole-activated calcium response relative to control wells was reported as inhibition. A compound-mediated increase in the riluzole response relative to control riluzole response (no test agent present) with no enhancement of calcium entry during preincubation phase was reported as an agonist response.
Compound inhibition of TRPC5 calcium response was determined as follows. After the riluzole addition, fluorescence was monitored for a 5-minute period. For inhibition, the maximum relative fluorescence response (minus the control response of 1 μM of an internal control compound known to maximally block TRPC5 calcium response, the “REF INHIB” in the formula below) was captured and exported from the FLIPR. […]
For `C[C@@H]1C(=O)N(C)c2nc(Oc3cccc(F)c3)n(Cc3ccc(Cl)cc3)c2C(=O)N1CCCO` (single isomer, unassigned) [Compound 19], the IC50 was > 10000 nM.
Take `CN1CC(=O)N(CCCO)C(=O)c2c1nc(Oc1cccc(OC(F)(F)F)c1)n2Cc1ccc(Cl)cc1` [Compound 21, 1-[(4-chlorophenyl)methyl]-7-(3-hydroxypropyl)-4-methyl-2-[3-(trifluoromethoxy)phenoxy]-1H,4H,5H,6H,7H,8H-imidazo[4,5-e][1,4]diazepine-6,8-dione]: the IC50 was in the range of 1 to 1000 nM.
Take `O=C1c2c(nc(Oc3cccc(OC(F)(F)F)c3)n2Cc2ccc(Cl)cc2)N2CCC[C@@H]2C(=O)N1CCCO` (single isomer, unassigned) [Compound 23]: the IC50 was 1 to 1000 nM.
Regarding `O=C1c2c(nc(Oc3cccc(OC(F)(F)F)c3)n2Cc2ccc(Cl)cc2)N2CCC[C@H]2C(=O)N1CCCO` (single isomer, unassigned) [Compound 22], the IC50 is > 10000 nM.
